Reference: US20110100079A1, “METHOD FOR IMPARTING STRESS TOLERANCE TO PLANT” (priority 2007, published 2011)

Key:
Assay type in all cases: in vivo
[1] = tested on: Potato Variety: Toyoshiro; test: Example 5 drying stress tolerance imparting test (potato variety Toyoshiro); details: pF 2.3, leaf, 100 ppm once a week, 3 weeks
Method: Other cultivation conditions were the same as the conditions of the drying stress test. Drying stress conditions: soil pF value: 2.3, 2.5, or 2.9, cultivation temperature: 23° C., relative humidity: 50%, illuminance: 5000 Lux (fluorescent light), light/dark cycle: 16 hours/8 hours (2) Cultivation Period: 3 weeks (3) Soil: Kureha gardening soil manufactured by Kureha Corporation (fertilizer components: N:P:K=0.4:1.9:0.6 g/kg soil) (4) The chemicals used and the amount of a treatment solution applied were the same as in Example 3. Method of Drying Stress Tolerance Imparting Test A planter (60 cm) was filled with Kureha gardening soil manufactured by Kureha Corporation (fertilizer components: N:P:K=0.4:1.9:0.6 g/kg soil) in a glass greenhouse, tubers of a “Thyoshiro” potato were cut in half: and 5 pieces thereof were planted in the planter, thinly covered with Kureha gardening soil, and sufficiently watered to allow the tubers to sprout. When the leaves in the 3-leaf stage fully unfolded, the Solarium tuberosu was relocated on a plant culture rack in an air-conditioned room, and a test was initiated. […] From immediately after the beginning of the test, a treatment solution of Table 1 was sprayed onto the leaves or applied to the underground portions once a week. […] Five specimens (per planter) were prepared for each of the test plot and the control plots, plant bodies were collected 3 weeks after the beginning of the test such that the roots were not cut, the soil was washed away with running water, the fresh plant body weights were measured, and a plant stress level and an extent of imparting plant stress tolerance were calculated according to Formula (ii) and (iii) above using the average of the weights.

[2] = tested on: “Momotaro” tomato; test: Example 3 drying stress tolerance imparting test (tomato); details: pF 2.3, leaf, 100 ppm once a week, 3 weeks
Method: Other cultivation conditions were as with the conditions of the drying stress test. Drying stress conditions: soil pF value: 2.3, 2.5, or 2.9, cultivation temperature: 23° C., relative humidity: 50%, illuminance: 5000 Lux (fluorescent light), light/dark cycle: 16 hours/8 hours (2) Cultivation period: 3 weeks (3) Soil: Kureha gardening soil manufactured by Kureha Corporation (fertilizer components: N:P:K=0.4:1.9:0.6 g/kg soil) (4) Plant preparation: A 50-cell tray was filled with Kureha gardening soil manufactured by Kureha Corporation (fertilizer components: N:P:K=0.4:1.9:0.6 g/kg soil), and seeds of a “Momotaro” tomato were sowed, thinly covered with Kureha gardening soil, and sufficiently watered to allow the seeds to sprout. When the leaves in the 2-leaf stage fully unfolded, the soil on the tomato roots was carefully washed away with running water, and a test was performed. (5) The chemicals used and the amount of a treatment solution applied were as in Example 1. (6) Amount of treatment solution applied: 10 ml/specimen for leaf spraying, 50 ml/specimen for fertigation Method of Drying Stress Tolerance Imparting Test Five tomato specimens as prepared above were planted in a 60-cm planter placed on a plant culture rack in an air-conditioned room. […] From immediately after planting the tomatoes, a treatment solution of Table 1 was sprayed onto the leaves or applied to the underground portions once a week. […] Five specimens (per planter) were prepared for each of the test plot and the control plots, plant bodies were collected 3 weeks after the beginning of the test such that the roots were not cut, the soil was washed away with running water, the fresh plant body-weights were measured, and a plant stress level and an extent of imparting plant stress tolerance were calculated according to Formula (ii) and (iii) above using the average of the weights.

[3] = tested on: “Momotaro” tomato; test: Example 4 salt stress tolerance imparting test (tomato, tap water + NaCl); details: tap water + NaCl 3510 ppm, leaf, 100 ppm, 2 weeks
Source text: NaCl concentration 3510 ppm (water potential by NaCl: […]) (4) Cultivation period: two weeks (5) Plant preparation: A 50-cell tray was filled with Kureha gardening soil manufactured by Kureha Corporation (fertilizer components: N:P:K=0.4:1.9:0.6 g/kg soil), and seeds of a “Momotaro” tomato were sowed, thinly covered with Kureha gardening soil, and sufficiently irrigated to allow the seeds to sprout. When the leaves in the 2-leaf stage fully unfolded, the soil on the tomato roots was carefully washed away with running water, and a test was performed. (6) The chemicals used and the concentration of a treatment solution were as in Example 1 (7) Amount of application: 10 ml/specimen for leaf spraying, 50 ml/specimen for fertigation Method of Salt Stress Tolerance Imparting Test […]

[4] = tested on: “Momotaro” tomato; test: Example 2 temperature stress tolerance imparting test (tomato); details: 32° C., leaf, 100 ppm, 2 weeks
Method: Other cultivation conditions were the same as the conditions of the temperature stress test. […] (2) Solution culture medium: […] Method of Temperature Stress Tolerance Imparting Test The temperature in a climatic chamber was controlled so as to be 10, 15, or 32° C. The environmental conditions were controlled so as to have an illuminance by a fluorescent light of 5000 Lux and a daily light-dark cycle of a 16-hour light period and a 8-hour dark period. In this test, a temperature of 23° C. at which the optimum growth was observed was regarded as a reference temperature (temperature stress-free test condition), and a stress was imposed by applying a temperature higher or lower than the reference temperature. A tomato as prepared above was planted in a 250 ml polyethylene bottle filled with the solution culture medium (½ Otsuka A formulation). A treatment solution as presented in Table 1 was sprayed onto the leaves or applied to the underground portion. […] Ten specimens were prepared for each of the test plot and the control plots, and a plant stress level and an extent of imparting plant stress tolerance were calculated according to Formula (ii) and (iii) above using as a fresh plant body weight the average of the fresh plant body weights of each specimen 2 weeks after the beginning of the test.

[5] = tested on: “Momotaro” tomato; test: Standard test: standard extent of imparting plant salt stress tolerance; details: 100 ppm sprayed onto leaves 10 ml/specimen, NaCl 3510 ppm in tap water, fresh weight after 2 weeks vs salt-stressed untreated control plot 1
Method: Standard Test (I) Plant Preparation A 50-cell tray is filled with potting soil (fertilizer components: N:P:K=0.4:1.9:0.6 (g)/kg potting soil); and seeds of a “Momotaro” tomato (Takii Co., Ltd.) are sowed, thinly covered with potting soil, and sufficiently irrigated to allow the seeds to sprout. When the leaves in the 2-leaf stage are fully unfolded, the soil on the tomato roots is washed away with running water, and a test is performed. For the potting soil, Kureha gardening soil manufactured by Kureha Corporation may be used. (II) Test Condition Setting The environmental conditions are controlled such that the temperature is 23° C., the relative humidity is 50%, the illuminance is 5000 Lux, and the daily light-dark cycle includes a 16-hour light period and an 8-hour dark period. Such environmental conditions can be obtained by, for example, controlling the temperature in a room or a climate chamber where the temperature and the relative humidity can be controlled, and controlling illuminance by a fluorescent light or the like. […] (III) Treatment with Plant Stress Tolerance Imparting Composition […] A known surfactant or a like material that barely affects the plant may be used in the preparation of an aqueous dispersion. Test plot: An aqueous solution or an aqueous dispersion of a test compound (sugar derivative-type surfactant) (concentration: 100 ppm) is sprayed onto the leaves in an amount of 10 ml per tomato specimen. […] NaCl is added to a solution culture medium (creating a salt stress), but no test compound (plant stress tolerance imparting composition) is given to the tomato. Control plot 2: No NaCl is added to a solution culture medium (creating no salt stress), and no test compound (plant stress tolerance imparting composition) is given to the tomato. (IV) Calculation of Standard Extent of Imparting Plant Salt Stress Tolerance (%) […] The plant stress level (standard plant salt stress level) attained in the above-described standard test is about 130%. In this regard, the standard plant salt stress level can be calculated according to Formula (ii)′ below.

In the case of “Sucrose fatty acid ester (C18, HLB = 5) [Product of present invention 17]”, the “Extent of imparting plant stress tolerance” value [1] is reported as 114%, the “Extent of imparting plant stress tolerance” value [2] is reported as 112% and the “Extent of imparting plant stress tolerance” value [3] is reported as 113%. For the same substance, the “Extent of imparting plant stress tolerance” value [4] was 111% and the “Standard extent of imparting plant salt stress tolerance” value [5] was 113%.
